In patent publication US20210261512A1, “NOVEL COMPOUNDS” (INFLAZOME LIMITED, priority 2018, published 2021):

Columns and labels:
NLRP3 [1] = molecular target: T1, NLRP3 (Homo sapiens, UniProt Q96P20); assay: THP-1 cells pyroptosis assay; type: cell-based; parameters: Seed THP-1 cells (25,000 cells/well) containing 1.0 μg/ml LPS; host or cells: THP-1; details: LPS 1.0 μg/ml, nigericin 5 μM, resazurin readout, 10 μM top dose (Example 2: top dose of 30 μM)
Procedure, shortened: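 Pyroptosis induced by 5 μM nigericin (1 h) in LPS-primed (1 μg/ml) THP-1 cells, 25,000/well in serum-free RPMI, after 3 h compound pre-treatment (8 points, 10 μM top unless stated). Surviving cells measured with 100 μM resazurin, Ex 560/Em 590; IC50 via variable-slope 4-parameter regression.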

[2] = PK, intravenous administration; type: in vivo; details: rat, plasma, male Sprague Dawley rats, dose about 1 mg/kg; for Vd: read-out: Vdss
Procedure, shortened: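 Male Sprague Dawley rats (6-9 weeks); IV dosing via tail vein as solution in DMSO:water or DMSO:PBS (10:90), oral dosing in 0.5% methylcellulose after overnight fasting. Plasma sampled at 8 time-points to 24 h; parameters derived from LC-MS/MS data.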

NLRP3 [3] = molecular target: T1, NLRP3; assay: Human whole blood IL1β release assay; type: cell-based; details: LPS 1 μg/ml, nigericin 10 μM, IL-1β AlphaLisa, 10 μM top dose (Example 2: top dose of 30 μM), read-out: HWB IC50
Procedure, shortened: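 Healthy-donor heparinised human whole blood with 1 μg/ml LPS, compound (8-point half-log dilution, 10 μM top dose unless stated; 0.1% DMSO vehicle) for 3 h at 37 °C, then nigericin 10 μM final for 1 h. Supernatant IL-1β by AlphaLISA; IC50 from 4-parameter variable-slope fit.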

T1 sequence (Q96P20 whole entry): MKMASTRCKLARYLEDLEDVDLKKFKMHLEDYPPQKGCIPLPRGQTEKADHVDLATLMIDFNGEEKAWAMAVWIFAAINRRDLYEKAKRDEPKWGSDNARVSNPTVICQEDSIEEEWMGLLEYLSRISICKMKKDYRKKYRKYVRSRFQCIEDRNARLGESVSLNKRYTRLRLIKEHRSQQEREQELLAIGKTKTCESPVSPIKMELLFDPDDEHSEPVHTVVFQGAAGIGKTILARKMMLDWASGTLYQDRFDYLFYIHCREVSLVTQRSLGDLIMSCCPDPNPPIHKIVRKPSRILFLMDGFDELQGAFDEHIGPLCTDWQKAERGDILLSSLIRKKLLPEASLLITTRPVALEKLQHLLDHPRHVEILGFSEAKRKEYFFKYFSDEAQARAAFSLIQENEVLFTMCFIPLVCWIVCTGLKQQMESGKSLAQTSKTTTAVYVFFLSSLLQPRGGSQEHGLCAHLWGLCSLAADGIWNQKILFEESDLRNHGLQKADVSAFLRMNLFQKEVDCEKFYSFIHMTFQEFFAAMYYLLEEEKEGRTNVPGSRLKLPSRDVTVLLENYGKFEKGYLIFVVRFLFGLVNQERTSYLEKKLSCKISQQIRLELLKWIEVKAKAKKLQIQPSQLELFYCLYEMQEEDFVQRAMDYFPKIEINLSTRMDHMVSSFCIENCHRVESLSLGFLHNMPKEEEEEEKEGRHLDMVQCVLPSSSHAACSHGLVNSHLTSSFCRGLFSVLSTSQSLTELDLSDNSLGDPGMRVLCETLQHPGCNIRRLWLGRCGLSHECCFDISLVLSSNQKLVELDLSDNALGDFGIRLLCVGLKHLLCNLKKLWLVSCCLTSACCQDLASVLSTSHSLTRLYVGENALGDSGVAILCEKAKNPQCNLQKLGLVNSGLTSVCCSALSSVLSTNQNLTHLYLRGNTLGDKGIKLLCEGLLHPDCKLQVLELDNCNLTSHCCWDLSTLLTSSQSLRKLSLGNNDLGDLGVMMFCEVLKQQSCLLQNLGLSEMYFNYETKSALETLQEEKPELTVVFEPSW

SMILES | IC50 (NLRP3 [1]) [nM] | AUC [2] [ng·h/mL] | clearance [2] [mL/min/kg] | half-life [2] [h] | Vd [2] [L/kg] | IC50 (NLRP3 [3]) [nM]
COc1cc(-c2cc(F)cc(C(C)C)c2Cc2nnc(S(=O)(=O)N3CCC(CN(C)C)C3)[nH]2)ccn1 (stereo not drawn) [Example 156, 1-(1-((5-(4-fluoro-2-isopropyl-6-(2-methoxypyridin-4-yl)benzyl)-4H-1,2,4-triazol-3-yl)sulfonyl)pyrrolidin-3-yl)-N,N-dimethylmethanamine] | ≤ 1000 | 193 | 103 | 0.4 | 2.95 | ≤ 5000
CC(C)N1CC(S(=O)(=O)c2nnc(Nc3c4c(cc5c3CCC5)CCC4)[nH]2)C1 [Example 22, N-(1,2,3,5,6,7-hexahydro-s-indacen-4-yl)-5-((1-isopropylazetidin-3-yl)sulfonyl)-4H-1,2,4-triazol-3-amine] | ≤ 5000 | 364 | 45.8 | 0.4 | 1.09 | ≤ 10000
CCN(CC)CCNS(=O)(=O)c1nnc(Nc2c3c(cc4c2CCC4)CCC3)[nH]1 [Example 81, N-(2-(diethylamino)ethyl)-5-((1,2,3,5,6,7-hexahydro-s-indacen-4-yl)amino)-4H-1,2,4-triazole-3-sulfonamide] | ≤ 500 | 278 | 59.9 | 1.5 | 4.61 | ≤ 1000
CCN(CC)CCCS(=O)(=O)c1nnc(Nc2c(-c3ccnc(OC)c3)ccc3c2CCC3)[nH]1 [Example 76, 5-((3-(diethylamino)propyl)sulfonyl)-N-(5-(2-methoxypyridin-4-yl)-2,3-dihydro-1H-inden-4-yl)-4H-1,2,4-triazol-3-amine] | ≤ 500 | 210 | 79.4 | 0.9 | 2.48 | ≤ 5000
CCN(CC)CCCS(=O)(=O)c1nnc(Nc2c3c(cc4c2CCC4)CCC3)[nH]1 [Example 24, 5-((3-(diethylamino)propyl)sulfonyl)-N-(1,2,3,5,6,7-hexahydro-s-indacen-4-yl)-4H-1,2,4-triazol-3-amine] | ≤ 500 | 173 | 96.5 | 0.8 | 5.26 | ≤ 1000
O=S(=O)(CCCN1CCCC1)c1nnc(Nc2c3c(cc4c2CCC4)CCC3)[nH]1 [Example 49, N-(1,2,3,5,6,7-hexahydro-s-indacen-4-yl)-5-((3-(pyrrolidin-1-yl)propyl)sulfonyl)-4H-1,2,4-triazol-3-amine] | ≤ 500 | 168 | 98.9 | 2.1 | 8.08 | ≤ 1000
COc1cc(-c2cc(F)cc(C(C)C)c2Oc2nnc(S(=O)(=O)N3CCC(CN(C)C)C3)[nH]2)ccn1 (stereo not drawn) [Example 69, 1-(1-((5-(4-fluoro-2-isopropyl-6-(2-methoxypyridin-4-yl)phenoxy)-4H-1,2,4-triazol-3-yl)sulfonyl)pyrrolidin-3-yl)-N,N-dimethylmethanamine] | ≤ 1000 | 267 | 65.5 | 0.71 | 1.29 | ≤ 1000
CN(C)C1CCN(S(=O)(=O)c2nnc(Nc3c4c(cc5c3CCC5)CCC4)[nH]2)CC1 [Example 118, 1-((5-((1,2,3,5,6,7-hexahydro-s-indacen-4-yl)amino)-4H-1,2,4-triazol-3-yl)sulfonyl)-N,N-dimethylpiperidin-4-amine] | ≤ 500 | 307 | 54.2 | 1.4 | 4.01 | ≤ 500

Next, values leading:

IC50 (NLRP3 [1]) [nM] | AUC [2] [ng·h/mL] | clearance [2] [mL/min/kg] | half-life [2] [h] | Vd [2] [L/kg] | IC50 (NLRP3 [3]) [nM] | SMILES
≤ 500 | 236 | 71 | 2.53 | 9.16 | ≤ 500 | CN1CCC12CCN(S(=O)(=O)c1nnc(Nc3c4c(cc5c3CCC5)CCC4)[nH]1)CC2 [Example 270, N-(1,2,3,5,6,7-hexahydro-s-indacen-4-yl)-5-((1-methyl-1,7-diazaspiro[3.5]nonan-7-yl)sulfonyl)-4H-1,2,4-triazol-3-amine]
≤ 1000 | 362 | 51.1 | 0.426 | 0.82 | ≤ 5000 | COc1cc(-c2cc(F)cc(C(C)C)c2Oc2nnc(S(=O)(=O)N3CCC4(CCN4C)CC3)[nH]2)ccn1 [Example 252, 7-((5-(4-fluoro-2-isopropyl-6-(2-methoxypyridin-4-yl)phenoxy)-4H-1,2,4-triazol-3-yl)sulfonyl)-1-methyl-1,7-diazaspiro[3.5]nonane]
≤ 500 | 459 | 36.3 | 0.326 | 0.494 | ≤ 1000 | COc1cc(-c2ccc3c(c2Nc2nnc(S(=O)(=O)N4CC[C@H](C(C)(C)O)C4)[nH]2)CCC3)ccn1 [Example 231, (S)-2-(1-((5-((5-(2-methoxypyridin-4-yl)-2,3-dihydro-1H-inden-4-yl)amino)-4H-1,2,4-triazol-3-yl)sulfonyl)pyrrolidin-3-yl)propan-2-ol]
≤ 500 | 235 | 70.8 | 2.65 | 10.6 | ≤ 5000 | CN(C)C1CCN(S(=O)(=O)c2nnc(Nc3c4c(c(Cl)c5c3CCC5)CCC4)[nH]2)CC1 [Example 300, 1-((5-((8-chloro-1,2,3,5,6,7-hexahydro-s-indacen-4-yl)amino)-1H-1,2,4-triazol-3-yl)sulfonyl)-N,N-dimethylpiperidin-4-amine]
≤ 500 | 224 | 72.3 | 2.18 | 6.41 | ≤ 1000 | COc1cc(-c2c(C)cc3c(c2Nc2nnc(S(=O)(=O)N4CCC(N(C)C)CC4)[nH]2)CCC3)ccn1 [Example 216, 1-((5-((5-(2-methoxypyridin-4-yl)-6-methyl-2,3-dihydro-1H-inden-4-yl)amino)-4H-1,2,4-triazol-3-yl)sulfonyl)-N,N-dimethylpiperidin-4-amine]
≤ 500 | 175 | 95.3 | 2.52 | 12.1 | ≤ 1000 | O=S(=O)(c1nnc(Nc2c3c(cc4c2CCC4)CCC3)[nH]1)N1CCC2(CCCN2)CC1 [Example 268, 5-((1,8-diazaspiro[4.5]decan-8-yl)sulfonyl)-N-(1,2,3,5,6,7-hexahydro-s-indacen-4-yl)-4H-1,2,4-triazol-3-amine]
≤ 1000 | 200 | 80.7 | 2.45 | 11.5 | ≤ 5000 | CC(C)c1cc(F)cc(C(C)C)c1Nc1nnc(S(=O)(=O)N2CCC(N(C)C)CC2)[nH]1 [Example 303, 1-((5-((4-fluoro-2,6-diisopropylphenyl)amino)-1H-1,2,4-triazol-3-yl)sulfonyl)-N,N-dimethylpiperidin-4-amine]
≤ 500 | 1240 | 13.5 | 0.653 | 0.518 | ≤ 10000 | CC(C)(O)Cn1ccc(S(=O)(=O)c2nnc(Nc3c4c(cc5c3CCC5)CCC4)[nH]2)n1 [Example 328, 1-(3-((5-((1,2,3,5,6,7-hexahydro-s-indacen-4-yl)amino)-4H-1,2,4-triazol-3-yl)sulfonyl)-1H-pyrazol-1-yl)-2-methylpropan-2-ol]
